In data set [1] the test system is human red blood cells (hRBCs). In words: Haemoglobin release from human red blood cells. The class given is cell-based. As to conditions: for Toxicity HC50: red cells of human. The protocol: Fresh human red blood cells (hRBCs) were centrifuged at 3500 rpm and washed with PBS buffer until the supernatant was clear. The hRBCs were then resuspended and diluted to a final concentration of 1% (v/v) in PBS and used immediately. 15 μL of serial dilution (2-fold) of peptides in DMSO or DMSO alone as a negative control were added to 1.5 mL of hRBCs in PBS. The resulting mixture was gently shaken to mix well and incubated at 37° C. for 1 hr, followed by centrifugation at 3500 rpm for 10 min using tabletop centrifuge. Aliquots (50 μL) of the supernatant (in triplicates) were transferred into a sterile 96-well plate containing 50 μL of H2O in each well. Release of hemoglobin was monitored at 415 nm using a microtiter plate reader. Percentage hemolysis was calculated using percentage hemolysis=100·(A415, peptide-A415,DMSO)/(A415, complete hemolysis-A415, DMSO), where complete hemolysis is achieved by mixing hRBCs with 1% TritonX-100.

Data set [2] deals with human red blood cells (hRBCs). In words: K+ leakage from hRBCs (flame atomic emission). It is filed as cell-based. The protocol: The rest of supernatant (1.2 mL) from each sample prepared as described in the hemoglobin leakage assay was transferred into a new sterile eppendorf tube and subject to the K+ concentration measurement using a flame-atomic emission spectrometer (λem=766.5 nm, Perkin Elmer Atomic absorption Spectrometer 3100, acetylene/air flame). Three readings were taken for each sample and averaged as final results. The fraction of K+ leakage from hRBCs was calculated as percentage K+ leaked=100·(I776.5,peptide−I776.5,DMSO)/(I776.5,complete lysis−I776.5,DMSO).

The next data set is described as follows: physchem. The class given is physicochemical. As to conditions: pH 7, aqueous with cosolvent or surfactant or cyclodextrin. As to the method: Peptide solubility in 10 mM HEPES buffer with 1% DMSO was measured by monitoring tryptophan absorbance. A concentrated (6.0-8.0 mM) peptide stock solution in DMSO was diluted 100 times (5 μL of the stock into 500 jtl of 10 mM HEPES buffer, pH 7.0). The mixture was sonicated for 30 mins and then subject to centrifugation (14,000 rpm, 10 mins) to remove possible precipitate. The supernatant (400 μL) was transferred to a quartz cuvette and the peptide concentration was determined by tryptophan absorbance at 280 nm (ε=22760 M−1 cm-1). The UV/Vis spectra of the supernatant can be seen in FIG. 1 and FIG. 5.

Data set [3] concerns Streptococcus pyogenes (ATCC 19615). As to conditions: ATCC 19615.

Where two headings read alike, the source gives them in different places. Where a SMILES comes first, the peptide text is derived from it. [ ]: non-standard residue; d: D form. The star is where a group is joined. dLys(Me3) = C[N+](C)(C)CCCC[C@@H](N)C(=O)O; NHCH2CH2OH = OCCN*; For = O=C* A value given as a limit tells only on which side of the number the result lay.

Usually solubility (kinetic) stands for solubility judged after dilution from a stock solution rather than from solid. Regarding `CC(C)C[C@@H](NC(=O)[C@H](C)NC(=O)CNC(=O)[C@@H](NC=O)C(C)C)C(=O)N[C@@H](C)C(=O)N[C@@H](C(=O)N[C@H](C(=O)N[C@@H](C(=O)N[C@@H](Cc1c[nH]c2ccccc12)C(=O)N[C@H](CCCC[N+](C)(C)C)C(=O)N[C@@H](Cc1c[nH]c2ccccc12)C(=O)N[C@H](CCCC[N+](C)(C)C)C(=O)N[C@@H](Cc1c[nH]c2ccccc12)C(=O)N[C@H](CCCC[N+](C)(C)C)C(=O)N[C@@H](Cc1c[nH]c2ccccc12)C(=O)NCCO)C(C)C)C(C)C)C(C)C` [10, 12, 14M] (For-VGA[dL]A[dV]V[dV]W[dLys(Me3)]W[dLys(Me3)]W[dLys(Me3)]W-NHCH2CH2OH), in data set [1], the HC50 is over 95; the “haemoglobin leakage from hRBCs” value is “[c] HC50 is the peptide concentration required to cause 50% of haemoglobin leakage from human red blood cells compared to the lysis of same amount cells by 1% TritonX-100. No haemoglogin leakage was observed in the cases of 10, 14M, 10, 12M or 10, 12, 14M at the concentration range tested”; the “Toxicity HC50” value was over 95 µM. Besides, in data set [2], the KC50 is recorded as over 95 and the “Toxicity KC50” value is over 95 µM. Besides, in “physchem”, the solubility (kinetic) at 30 min came out at 55 µM.
The term EC50 denotes the concentration at which the effect is half-maximal. Read a high EC50 as a need for much substance. As for `CC(C)C[C@@H](NC(=O)[C@H](C)NC(=O)CNC(=O)[C@@H](NC=O)C(C)C)C(=O)N[C@@H](C)C(=O)N[C@@H](C(=O)N[C@H](C(=O)N[C@@H](C(=O)N[C@@H](Cc1c[nH]c2ccccc12)C(=O)N[C@H](CCCC[N+](C)(C)C)C(=O)N[C@@H](Cc1c[nH]c2ccccc12)C(=O)N[C@H](CCCC[N+](C)(C)C)C(=O)N[C@@H](Cc1c[nH]c2ccccc12)C(=O)N[C@H](CC(C)C)C(=O)N[C@@H](Cc1c[nH]c2ccccc12)C(=O)NCCO)C(C)C)C(C)C)C(C)C` [10, 12M] (For-VGA[dL]A[dV]V[dV]W[dLys(Me3)]W[dLys(Me3)]W[dL]W-NHCH2CH2OH), in data set [1], the HC50 is listed as over 10; the “haemoglobin leakage from hRBCs” value is “[c] HC50 is the peptide concentration required to cause 50% of haemoglobin leakage from human red blood cells compared to the lysis of same amount cells by 1% TritonX-100. No haemoglogin leakage was observed in the cases of 10, 14M, 10, 12M or 10, 12, 14M at the concentration range tested”; the “Toxicity HC50” value was over 10 µM. For the same compound, in data set [2], the KC50 is over 10 and the “Toxicity KC50” value is over 10 µM. The kinetic solubility at 30 min in the data set “physchem” stood at 27 µM. Besides, in data set [3], the EC50 worked out at 1.25 µM and the “Minimum Inhibition Concentration S. Pyogenesis” value is over 10 µM.
Regarding `CC(C)C[C@@H](NC(=O)[C@H](C)NC(=O)CNC(=O)[C@@H](NC=O)C(C)C)C(=O)N[C@@H](C)C(=O)N[C@@H](C(=O)N[C@H](C(=O)N[C@@H](C(=O)N[C@@H](Cc1c[nH]c2ccccc12)C(=O)N[C@H](CC(C)C)C(=O)N[C@@H](Cc1c[nH]c2ccccc12)C(=O)N[C@H](CCCC[N+](C)(C)C)C(=O)N[C@@H](Cc1c[nH]c2ccccc12)C(=O)N[C@H](CC(C)C)C(=O)N[C@@H](Cc1c[nH]c2ccccc12)C(=O)NCCO)C(C)C)C(C)C)C(C)C` [12MeK] (For-VGA[dL]A[dV]V[dV]W[dL]W[dLys(Me3)]W[dL]W-NHCH2CH2OH), the HC50 in data set [1] (Table 8) is reported as over 10. Also, the KC50 in data set [2] (Table 8) was 0.2.
As to `CC(C)C[C@@H](NC(=O)[C@H](C)NC(=O)CNC(=O)[C@@H](NC=O)C(C)C)C(=O)N[C@@H](C)C(=O)N[C@@H](C(=O)N[C@H](C(=O)N[C@@H](C(=O)N[C@@H](Cc1c[nH]c2ccccc12)C(=O)N[C@H](CC(C)C)C(=O)N[C@@H](Cc1c[nH]c2ccccc12)C(=O)N[C@H](CCCC[N+](C)(C)C)C(=O)N[C@@H](Cc1c[nH]c2ccccc12)C(=O)N[C@H](CCCC[N+](C)(C)C)C(=O)N[C@@H](Cc1c[nH]c2ccccc12)C(=O)NCCO)C(C)C)C(C)C)C(C)C` [1214MeK] (For-VGA[dL]A[dV]V[dV]W[dL]W[dLys(Me3)]W[dLys(Me3)]W-NHCH2CH2OH), in data set [2] (Table 8), the KC50 is listed as over 10.

Source of the values: patent publication US9243037B2, “Gramicidin a mutants that function as antibiotics with improved solubility and reduced toxicity” (Trustees of Boston College, priority 2011, dated 2016).
